Measured values as given in ChEMBL document CHEMBL3039007, “Structure-based identification of OATP1B1/3 inhibitors” (Mol Pharmacol, 2013).

Legend:
[1] = molecular target: T1, Solute carrier organic anion transporter family member 1B3 (Homo sapiens, UniProt Q9NPD5); settings: chinese hamster, cho, 10 µM
T1 sequence (Q9NPD5 whole entry): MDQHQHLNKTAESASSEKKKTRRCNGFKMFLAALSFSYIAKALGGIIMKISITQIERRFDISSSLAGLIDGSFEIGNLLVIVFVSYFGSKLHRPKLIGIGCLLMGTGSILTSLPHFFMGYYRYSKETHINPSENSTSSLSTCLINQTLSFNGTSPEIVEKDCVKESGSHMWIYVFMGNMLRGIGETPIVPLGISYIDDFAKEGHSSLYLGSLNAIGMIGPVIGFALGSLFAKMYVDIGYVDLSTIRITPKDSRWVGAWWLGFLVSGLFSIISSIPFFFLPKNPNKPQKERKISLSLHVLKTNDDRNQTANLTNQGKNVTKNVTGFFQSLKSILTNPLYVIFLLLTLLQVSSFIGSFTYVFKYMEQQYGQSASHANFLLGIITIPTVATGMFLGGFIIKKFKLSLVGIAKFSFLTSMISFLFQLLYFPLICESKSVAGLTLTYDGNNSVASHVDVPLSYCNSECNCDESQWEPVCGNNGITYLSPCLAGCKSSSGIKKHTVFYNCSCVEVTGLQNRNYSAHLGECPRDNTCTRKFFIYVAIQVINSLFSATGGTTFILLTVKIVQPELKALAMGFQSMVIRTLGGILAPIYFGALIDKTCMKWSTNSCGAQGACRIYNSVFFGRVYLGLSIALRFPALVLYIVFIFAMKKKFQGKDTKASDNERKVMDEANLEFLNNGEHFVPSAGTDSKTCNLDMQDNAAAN

[2] = molecular target: T2, Solute carrier organic anion transporter family member 1B1 (Homo sapiens, UniProt Q9Y6L6); settings: chinese hamster, cho, 10 µM
T2 sequence (Q9Y6L6 whole entry): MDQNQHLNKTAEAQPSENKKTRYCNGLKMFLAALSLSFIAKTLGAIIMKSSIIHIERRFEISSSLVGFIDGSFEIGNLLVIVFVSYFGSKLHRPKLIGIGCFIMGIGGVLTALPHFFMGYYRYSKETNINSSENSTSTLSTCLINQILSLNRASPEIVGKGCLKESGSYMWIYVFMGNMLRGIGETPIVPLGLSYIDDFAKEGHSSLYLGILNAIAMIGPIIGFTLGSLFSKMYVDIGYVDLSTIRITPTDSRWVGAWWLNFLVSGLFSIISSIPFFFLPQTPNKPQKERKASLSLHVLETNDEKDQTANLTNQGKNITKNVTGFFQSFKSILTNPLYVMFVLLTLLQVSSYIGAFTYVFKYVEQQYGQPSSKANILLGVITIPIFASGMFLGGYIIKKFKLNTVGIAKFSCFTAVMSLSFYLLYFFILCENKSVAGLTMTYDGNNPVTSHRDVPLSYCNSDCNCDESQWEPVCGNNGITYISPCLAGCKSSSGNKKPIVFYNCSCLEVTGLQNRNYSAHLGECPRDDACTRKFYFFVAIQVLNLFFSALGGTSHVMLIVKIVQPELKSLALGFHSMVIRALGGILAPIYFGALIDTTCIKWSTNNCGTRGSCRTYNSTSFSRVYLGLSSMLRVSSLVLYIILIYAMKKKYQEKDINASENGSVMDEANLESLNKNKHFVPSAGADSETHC

`CC(=O)CC(c1ccccc1)c1c(O)c2ccccc2oc1=O` (configuration not stated) [WARFARIN] gave a residual activity [1] of 66.67% and a residual activity [2] of 122.2%.
With `CC1=C(/C=C/C(C)=C/C=C/C(C)=C/CO)C(C)(C)CCC1` [RETINOL] the residual activity [1] was 31.96% and the residual activity [2] was 18.99%.
Work on `O=C(O)C1CC([C@@H]2CCCCN2)CN2CCCCC12` (some centres not stated) [APHYLLIC ACID] yielded a residual activity [1] of 100.7% and a residual activity [2] of 83.2%.
Work on `CCCc1cc(=O)[nH]c(=S)[nH]1` [PROPYLTHIOURACIL] yielded a residual activity [1] of 90.71% and a residual activity [2] of 79.91%.
Compound `CCN(CC)C(=O)N1CCN(C)CC1.O=C(O)CC(O)(CC(=O)O)C(=O)O` [DIETHYLCARBAMAZINE CITRATE] has a residual activity [1] of 81.28% and a residual activity [2] of 95.54%.
With `C=CC(C1=CC(=O)C(OC)=CC1=O)c1ccccc1` (configuration not stated) [4-METHOXYDALBERGIONE] the residual activity [1] was 139.3% and the residual activity [2] was 77.75%.
With `CC(=O)Oc1c(-c2ccccc2)oc2c(CC=C(C)C)c3c(c(OC(C)=O)c2c1=O)C=CC(C)(C)O3` [SERICETIN DIACETATE] the residual activity [1] was 81.94% and the residual activity [2] was 106.8%.
`CC(Cc1cccc(C(F)(F)F)c1)NCCOC(=O)c1ccccc1.Cl` (configuration not stated) [BENFLUOREX HYDROCHLORIDE] showed a residual activity [1] of 87.71% and a residual activity [2] of 93.54%.
`C=CCCCCCCCCCCCC(O)CC(O)CO` (stereo in doubt; form 1) [AVOCADENE] was tested, and the residual activity [1] was 100.3% and the residual activity [2] was 107.8%.
Compound `Cc1cc(=O)oc2cc(O)c(O)cc12` [4-METHYLESCULETIN] has a residual activity [1] of 110.1% and a residual activity [2] of 121.7%.
`Nc1c2c(nc3ccccc13)CCCC2O.O=C(O)/C=C\C(=O)O` (configuration not stated) [VELNACRINE MALEATE] was tested, and the residual activity [1] was 96.75% and the residual activity [2] was 103.3%.
`CC(=O)O[C@H]1CC[C@]2(C)[C@H]3CC[C@@H]4[C@@H]5CC(C)(C)CC[C@]5(C(=O)O)CC[C@@]4(C)[C@]3(C)CC[C@H]2C1(C)C` showed a residual activity [1] of 103.7% and a residual activity [2] of 112.3%.
Compound `COc1ccc(-c2coc3cc(O)ccc3c2=O)c(OC)c1O` [KHRINONE E] has a residual activity [1] of 96.23% and a residual activity [2] of 85.61%.
With `C=C(CC)C(=O)c1ccc(OCC(=O)O)c(Cl)c1Cl` [ETHACRYNIC ACID] the residual activity [1] was 111.8% and the residual activity [2] was 171.8%.
`CN[C@@H]1[C@H](O[C@H]2[C@H](O[C@H]3[C@H](O)[C@@H](O)[C@H](NC(=N)N)[C@@H](O)[C@@H]3NC(=N)N)O[C@@H](C)[C@]2(O)CO)O[C@@H](CO)[C@H](O)[C@H]1O.CN[C@@H]1[C@H](O[C@H]2[C@H](O[C@H]3[C@H](O)[C@@H](O)[C@H](NC(=N)N)[C@@H](O)[C@@H]3NC(=N)N)O[C@@H](C)[C@]2(O)CO)O[C@@H](CO)[C@H](O)[C@H]1O.O=S(=O)(O)O.O=S(=O)(O)O.O=S(=O)(O)O` [DIHYDROSTREPTOMYCIN SULFATE] showed a residual activity [1] of 99.04% and a residual activity [2] of 78.79%.
With `C1CNCCN1` [PIPERAZINE] the residual activity [1] was 102.1% and the residual activity [2] was 77.78%.
With `CC1CCC(NC(=O)N(CCCl)N=O)CC1` (configuration not stated) [SEMUSTINE] the residual activity [1] was 100.5% and the residual activity [2] was 101.5%.
`CO/N=C(\C(=O)N[C@@H]1C(=O)N2C(C(=O)OCOC(=O)C(C)(C)C)=C(/C=C\c3scnc3C)CS[C@H]12)c1csc(N)n1` [CEFDITOREN PIVOXIL] showed a residual activity [1] of 82.75% and a residual activity [2] of 64.03%.
In the case of `CN(C)CCC=C1c2ccccc2C=Cc2ccccc21.Cl` [CYCLOBENZAPRINE HYDROCHLORIDE], the residual activity [1] was 102.1% and the residual activity [2] was 85.24%.
`CC12CCCC(O)(C1)C1CC(C)(C)C1CC2` (stereo not drawn) [beta-CARYOPHYLLENE ALCOHOL] was tested, and the residual activity [1] was 113% and the residual activity [2] was 117.4%.
Compound `Cc1ncc([N+](=O)[O-])n1CCO` [METRONIDAZOLE] has a residual activity [1] of 98.27% and a residual activity [2] of 102.6%.
`CN1Cc2c(N)cccc2C(c2ccccc2)C1.O=C(O)/C=C\C(=O)O` (configuration not stated) [NOMIFENSINE MALEATE] gave a residual activity [1] of 79.07% and a residual activity [2] of 59.46%.
In the case of `Nc1ccc(S(=O)(=O)Nc2ccc(Cl)nn2)cc1` [SULFACHLORPYRIDAZINE], the residual activity [1] was 95.19% and the residual activity [2] was 134.9%.
`Cl.N[C@@H]1C[C@H]1c1ccccc1` [TRANYLCYPROMINE HYDROCHLORIDE] showed a residual activity [1] of 89.57% and a residual activity [2] of 80.64%.
With `CC(CCc1ccc(O)cc1)NCCc1ccc(O)c(O)c1.Cl` (configuration not stated) [DOBUTAMINE HYDROCHLORIDE] the residual activity [1] was 105.8% and the residual activity [2] was 91.62%.
For `Cc1ccccc1N1C(=O)c2cc(S(N)(=O)=O)c(Cl)cc2NC1C` (configuration not stated) [METOLAZONE], the residual activity [1] was 66.79% and the residual activity [2] was 62.42%.
`CCOc1ccc2c(c1)C(C)=CC(C)(C)N2` [E324] gave a residual activity [1] of 119.7% and a residual activity [2] of 108.3%.
Compound `N=C1C=CC(=C(c2ccc(N)cc2)c2ccc(N)cc2)C=C1.N=C1C=CC(=C(c2ccc(N)cc2)c2ccc(N)cc2)C=C1.O.O.O=C(O)c1cc2ccccc2c(Cc2c(O)c(C(=O)O)cc3ccccc23)c1O` [PARAROSANILINE PAMOATE] has a residual activity [1] of 144.5% and a residual activity [2] of 66.86%.
With `COc1cc2c(cc1OC)[C@@H]1C(=O)c3ccc4c(c3O[C@@H]1CO2)C=CC(C)(C)O4` [DEGUELIN] the residual activity [1] was 75.69% and the residual activity [2] was 99.89%.
`C=CC(C1=CC(=O)C(OC)=CC1=O)c1ccc(OC)cc1` (configuration not stated) [4,4'-DIMETHOXYDALBERGIONE] gave a residual activity [1] of 101.4% and a residual activity [2] of 116.4%.
`COC(=O)NC(=S)Nc1ccccc1NC(=S)NC(=O)OC` [THIOPHANATE METHYL] gave a residual activity [1] of 92.95% and a residual activity [2] of 119%.
`CC(=O)OCC(=O)[C@@]1(O)CC[C@H]2[C@@H]3CCC4=CC(=O)CC[C@]4(C)[C@@]3(F)[C@@H](O)C[C@@]21C` [FLUDROCORTISONE ACETATE] showed a residual activity [1] of 71.2% and a residual activity [2] of 36.29%.
`CN(C)c1ccc(C(=C2C=CC(=[N+](C)C)C=C2)c2ccc(N(C)C)cc2)cc1.[Cl-]` [GENTIAN VIOLET] showed a residual activity [1] of 92.5% and a residual activity [2] of 109.6%.
In the case of `Clc1ccc(COC(Cn2ccnc2)c2ccc(Cl)cc2Cl)cc1.O=[N+]([O-])O` (configuration not stated) [ECONAZOLE NITRATE], the residual activity [1] was 127.4% and the residual activity [2] was 146.5%.
`CS(=O)(=O)O.OC(CCN1CCCCC1)(c1ccccc1)c1ccccc1` [PRIDINOL METHANESULFONATE] showed a residual activity [1] of 95.39% and a residual activity [2] of 95.92%.
In the case of `CCCn1c(=O)c2[nH]c(C3CCCC3)nc2n(CCC)c1=O` [1,3-DIPROPYL-8-CYCLOPENTYLXANTHINE [DPCPX]], the residual activity [1] was 117.3% and the residual activity [2] was 264.1%.
In the case of `C=C[C@](C)(O)CCC=C(C)C` [LINALOOL (+)], the residual activity [1] was 117.7% and the residual activity [2] was 102.5%.
For `NC[C@H]1CC[C@H](C(=O)O)CC1` [TRANEXAMIC ACID], the residual activity [1] was 102.3% and the residual activity [2] was 81.79%.
For `O=C1C(CC[S+]([O-])c2ccccc2)C(=O)N(c2ccccc2)N1c1ccccc1` (configuration not stated) [SULFINPYRAZONE], the residual activity [1] was 43.93% and the residual activity [2] was 55.19%.
With `C[C@@H]1CC[C@@]2(OC1)O[C@H]1C[C@H]3[C@@H]4CC[C@@]5(C)C[C@@H](O)CC[C@]5(C)[C@H]4CC(=O)[C@]3(C)[C@H]1[C@@H]2C` [HECOGENIN] the residual activity [1] was 105.1% and the residual activity [2] was 41.82%.
With `CC(=O)Nc1c(I)cc(I)c(C(=O)O)c1I` [ACETRIZOIC ACID] the residual activity [1] was 98.63% and the residual activity [2] was 133.1%.
